Data set [1] has as its system BY-2 cells. The data set is described as follows: GUS reporter activity of tetramer promoter constructs in transformed BY-2 cells with or without MeJA. In kind it is cell-based, N. tabacum. The note with it: tetramer upstream of minimal CaMV 35S -46 promoter. The method, then:
Promoter constructs were produced by annealing phosphorylated upper- and lower-strand oligonucleotides to create various elements containing a SpeI restriction site at the 5′ end and an XbaI restriction site at the 3′ end. These were introduced into MS23-β-glucuronidase (“GUS”) between the SpeI and XbaI sites.
Ten colonies of transformed Agrobacteria (A. tumefaciens) containing the promoter construct were picked from a fresh plate and inoculated into 10 ml YEB, containing 50 mg/l rifampicin and 50 mg/l kanamycin, in a 50 ml flask. Cell cultures were incubated overnight at 28° C. with shaking, an overnight culture (1 ml) was taken. Cultures were diluted with YEB plus antibiotics so that the OD600 was approximately 0.3. Agrobacteria were grown at 28° C. with shaking until the OD600 was about 0.6. Cells were pelleted by centrifugation. Supernatants were removed and agrobacteria were resuspended in 0.5 ml MS. Approximately 3 ml of wild type BY-2 cells were introduced into Petri dishes. Approximately 100 μl of undiluted Agrobacteria or 1:10 or 1:100 diluted agrobacteria were mixed with the BY-2 cells to infect them. After 2 days, the BY-2 cells were washed with 30 ml MS medium and left for 30 min before the supernatant was removed. Approximately 2 ml aliquots of the transformed BY-2 cells were deposited onto MS plates containing vitamins, 50 mg/l kanamycin, and 500 mg/l cefotaxin. Transformed calli were visible after 3-5 weeks.
Single transformed calli were picked from selection plates and put on fresh MS+agar plates containing vitamins, 50 mg/l kanamycin, and 500 mg/l cefotaxin. Additionally, small amounts of calli were deposited into micro-wells (Corning 6 well culture cluster) with 6 ml MS medium containing vitamins, kanamycin, and cefotaxin. Samples in the micro-wells were grown at 28° C. for 4 days with shaking. Approximately 1 ml cells from the micro-wells were subcultured to new micro-wells with 5 ml fresh MS medium with vitamins, 50 mg/l kanamycin, and 500 mg/l cefotaxin. BY-2 cells were grown at 28° C. for 3 days with shaking. Then ten independent lines were chosen and 0.4 ml cells from each of the liquid cultures were subcultured to a 250 ml Erlenmeyer flask with 45 ml MS medium, vitamins, 50 mg/l kanamycin, and 500 mg/l cefotaxin. Cells were grown at 28° C. for 2 days with shaking. Then 10 ml cells from each flask were introduced into new 250 ml Erlenmeyer flasks with 40 ml MS medium containing vitamins without hormones (−2.4D) and antibiotics. The BY-2 cells were grown at 28° C. for 1 day with shaking. After 1 day BY-2 cells were treated with different amounts of methyl jasmonate (MeJA).
(§1) Histochemical staining for GUS activity and GUS activity determination was performed as described by Jefferson (1987).
An improved method for the analysis of promoter activity in BY-2 cells was developed. Transformed BY-2 calli were grown on selection plates and subsequently grown as liquid cultures in MS medium. For each individual construct ten independent lines were chosen. Approximately 0.5 ml cells from each of the liquid cultures were subcultured together in MS medium that contain vitamins, kanamycin, and cefotaxin. After 2 days, the cells were diluted in fresh MS medium containing vitamins without hormones (−2.4D) to reduce any stress response induced by cell density, and to deplete the medium of auxin. It has been shown previously that high auxin levels in the medium decreased the extent of MeJA-induced NtPMT:GUS expression (Xu and Timko, 2004). After 1 day BY-2 cells were treated with 100 μM MeJA. After 48 hours cell samples were taken, and were used to determine the GUS activity. For statistical analysis, each experiment was repeated four times and to avoid day to day variation in the GUS activities, and the data were normalized. These cell culture conditions ensured both a rapid and uniform response to MeJA.

Data set [2] deals with tobacco plants. The data set can be described thus: Histochemical GUS staining of transgenic tobacco plants after wounding or MeJA. The note with it: tetramer constructs, GUS staining after 72 hours. The class given is in vivo, N. tabacum. The protocol:
as §1
Ten colonies of the transformed Agrobacteria containing a promoter construct of interest were picked from a fresh plate and inoculated into 10 ml YEB, containing 50 mg/l rifampicin, and 50 mg/l kanamycin, in a 50 ml flask. Cell cultures were incubated overnight at 28° C. with shaking. Approximately 1 ml of overnight culture was taken. Cultures were diluted with 50 ml YEB plus antibiotics so that the OD600 was approximately 0.3. Agrobacteria were grown at 28° C. with shaking until the OD600 was approximately 0.6. The cells were then pelleted by centrifugation. Supernatants were removed and Agrobacteria were resuspended in 40 ml fresh YEB by pipetting with a 1 ml tip. Wild type tobacco leaves were cut into small pieces under sterile conditions and put in a 50 ml beaker. Agrobacteria solution was poured onto the tobacco leaves and the mixture was swirled together and left for 5 min for the Agrobacteria to infect the leaves. Infected leaves were put on MS plates with filter paper (to limit Agrobacteria grow). […] Plates were left for 2 days in the dark. After 2 days the tobacco pieces were transferred onto MS plates containing 1 mg/l 6 BA, 500 mg/l cefotaxin and 100 mg/l kanamycin. Samples were left in the light at 28° C. […]

This is an account of results in US12351606B2, “Compositions and related methods for modulating transcriptional activation by incorporating gag motifs upstream of core promoter elements” (UNIVERSITY OF VIRGINIA PATENT FOUNDATION, priority 2007, dated 2025).

For “G Box-like element: SEQ ID NO:2 (GCACGTTG); tetramer in front of minimal CaMV 35S -46 promoter (expressed or natural sequence; listed as Nicotiana tabacum)”, the “promoter activity / promoter strength” value in data set [1] is given as “Low promoter activity”. The “response of GUS expression to MeJA treatment” value in data set [1] (100 μM MeJA, 48 hours) is listed as “characteristic reduction after MeJA exposure”.
Take “AT-rich element: SEQ ID NO:3; tetramer in front of minimal CaMV 35S -46 promoter (DNA TAATGAATTTTTAACTATTATATTATAT; expressed or natural sequence; listed as Nicotiana tabacum)”: the “promoter activity / promoter strength” value in data set [1] is “only low level promoter activity”. Moreover, the “response of GUS expression to MeJA treatment” value in data set [1] (100 μM MeJA, 48 hours) is recorded as “characteristic reduction in promoter activity after MeJA addition”.
For “GCC-like box: SEQ ID NO:4; tetramer in front of minimal CaMV 35S -46 promoter (DNA TGCGCCCTCCACTCCTCGGTGTCCA; expressed or natural sequence; listed as Nicotiana tabacum)” the same measures were “only low level promoter activity” and “characteristic reduction in every line tested after MeJA addition”.

B1: GAG motif: SEQ ID NO:1 regulatory region of NtPMT1a promoter: G-box like, AT-rich and GCC-like box elements; tested as tetramer before CaMV 35S -46::GUS (nucleic acid, listed as Nicotiana tabacum)
DNA: CTAACCCTGCACGTTGTAATGAATTTTTAACTATTATATTATATCGAGTTGCGCCCTCCACTCCTCGGTGTCCA
modifications: expressed or natural sequence
notes: tested as tetramer before CaMV 35S -46::GUS
Take B1: the “promoter activity / promoter strength” value in data set [1] is listed as “much stronger than the G Box-GCC element”. Besides, the “MeJA inducibility of GUS expression (relative fold inducibility)” value in data set [1] (100 μM MeJA, 48 hours) was “approximately 35 fold”. The “MeJA-inducible expression in roots” value in data set [2] (25 μM MeJA) is “showed inducibility by MeJA”. For the same molecule, in data set [2] (wounding of roots or leaves), the “wound-inducible expression in roots” value is reported as “can direct wound-inducible expression”.
